{
  "source": "the CATMoS acute toxicity set (Mansouri et al. 2021)",
  "origin": "cited, not measured here",
  "data": [
    {"assay": "rat acute oral toxicity", "conditions": "in vivo", "units": {"LD50": "mg/kg"}, "values": [
      {"smiles": "C=C(OP(=O)(OCC)OCC)P(=O)(OC)OC", "LD50": 173},
      {"smiles": "CCOc1c(N2CCOCC2)cnn(C)c1=O", "LD50": 1900},
      {"smiles": "Cn1c(=O)c2c(ncn2CCO)n(C)c1=O", "LD50": 710},
      {"smiles": "CC(C)N=C1SC(=NOC(=O)N(C)SC(Cl)(Cl)Cl)C(C)(C)S1", "LD50": 226},
      {"smiles": "Cc1ccc([N+](=O)[O-])cc1S(=O)(=O)Cl", "LD50": 7470},
      {"smiles": "O=C1CCCN1CCO", "LD50": 14400},
      {"smiles": "c1ccc2[nH]ccc2c1", "LD50": 1000},
      {"smiles": "CCCCN(CCN(CCCC)C(=O)N1CCOCC1)C(=O)N1CCOCC1", "LD50": 270},
      {"smiles": "CCOP(=O)(OCC)SCCSCC", "LD50": 1.5},
      {"smiles": "Clc1cc(Cl)c(Cl)c(Cl)c1", "LD50": 1730},
      {"smiles": "Fc1ccc(SCc2ccc(Cl)cc2)cc1", "LD50": 3000},
      {"smiles": "O=C(NCCN1CCOCC1)c1ccc(Cl)cc1", "LD50": 707},
      {"smiles": "CCOc1ccccc1OCC(O)CNCCNCC(O)COc1ccccc1OCC", "note": "(stereo unspecified)", "LD50": 560},
      {"smiles": "ClC(Cl)=C1C(Cl)(Cl)C(Cl)=C(Cl)C1(Cl)Cl", "LD50": 3700},
      {"smiles": "c1ccsc1", "LD50": 1400},
      {"smiles": "COC(=O)CCC(Br)C(C)=O", "note": "(stereo unspecified)", "LD50": 600},
      {"smiles": "CC=CC(=O)OC(C=CC)OC(=O)C=CC", "note": "(stereo unspecified)", "LD50": 2590},
      {"smiles": "CN(C)N=Nc1cccc(C(N)=O)c1", "LD50": 54},
      {"smiles": "c1ccc([B-](c2ccccc2)(c2ccccc2)c2ccccc2)cc1", "LD50": 288},
      {"smiles": "c1cc(CC2CO2)cc(CC2CO2)c1", "note": "(stereo unspecified)", "LD50": 4190},
      {"smiles": "Cc1ccccc1N(CCO)CCO", "LD50": 2200},
      {"smiles": "COP(=S)(OC)SCC(=O)N(c1ccc(Cl)cc1)C(C)C", "LD50": 472},
      {"smiles": "CCCCc1c(C)nc2cccc(C)n2c1=O", "LD50": 1100},
      {"smiles": "CN(C)c1ccc(C(=C2C=CC(=[N+](C)C)C=C2)c2ccc(N(C)C)cc2)cc1", "LD50": 420},
      {"smiles": "C=CC1(C)CCC(C(C)(C)O)O1", "note": "(stereo unspecified)", "LD50": 1150},
      {"smiles": "CCCCN(CCCCO)N=O", "LD50": 1800},
      {"smiles": "Cc1ccc(-c2ccccc2)cc1", "LD50": 2570},
      {"smiles": "Fc1ccc(C(c2ccccc2)(c2ccccc2F)n2ccnc2)cc1", "note": "(stereo unspecified)", "LD50": 808},
      {"smiles": "O=C(Cl)CCCCCCCCC(=O)Cl", "LD50": 400},
      {"smiles": "CS(=O)(=O)c1ccc(N)c(Cl)c1", "LD50": 9500},
      {"smiles": "CC[N+](CC)(CC(=O)Nc1c(C)cccc1C)Cc1ccccc1", "LD50": 584},
      {"smiles": "Nc1cc(Cl)c(N)cc1Cl", "LD50": 1750},
      {"smiles": "CCN(CC)C(=O)CSc1ccc(Cl)nn1", "LD50": 1550},
      {"smiles": "OCC(Cl)C(Cl)CO", "note": "(stereo unspecified)", "LD50": 2830},
      {"smiles": "Oc1ccc(C(c2ccc(O)cc2)c2ccccn2)cc1", "LD50": 8550},
      {"smiles": "C(=NC1CCCCC1)c1ccccc1", "LD50": 3080},
      {"smiles": "CCOP(N)(=O)SC", "note": "(stereo unspecified)", "LD50": 5},
      {"smiles": "CC(=O)OC1CC2CCC3C(CCC4(C)C3CC(OC(C)=O)C4[N+]3(C)CCCCC3)C2(C)CC1[N+]1(C)CCCCC1", "note": "(stereo unspecified)", "LD50": 202},
      {"smiles": "CN(C)N=Nc1ccc(F)cc1", "LD50": 326},
      {"smiles": "C1CSCCO1", "LD50": 2830},
      {"smiles": "CN(C)CC/C=C1/c2ccccc2CSc2ccccc21", "LD50": 260},
      {"smiles": "O=C1CSC2(CCN(CCCN3c4ccccc4Sc4ccc(Cl)cc43)CC2)N1", "LD50": 3800},
      {"smiles": "Nc1cccc2c(N)cccc12", "LD50": 634},
      {"smiles": "COP(N)(=S)Oc1cc(Cl)c(Cl)cc1Cl", "note": "(stereo unspecified)", "LD50": 700},
      {"smiles": "CC(=O)OC(c1ccccc1)C(Cl)(Cl)Cl", "note": "(stereo unspecified)", "LD50": 6800},
      {"smiles": "C[N+](C)(C)CC[N+]1(C)Cc2c(Cl)c(Cl)c(Cl)c(Cl)c2C1", "LD50": 300},
      {"smiles": "OCCC1CCN(CCC=C2c3ccc(F)cc3Sc3ccc(C(F)(F)F)cc32)CC1", "LD50": 1.5},
      {"smiles": "CCOP(=S)(OCC)SCSc1cc(Cl)ccc1Cl", "LD50": 44},
      {"smiles": "Cc1c(F)c(N2CCNC(C)C2)cc2c1c(=O)c(C(=O)O)cn2C1CC1", "note": "(stereo unspecified)", "LD50": 3030},
      {"smiles": "CCCCCCCCCCCCCCCCCC(=O)Cl", "LD50": 7500},
      {"smiles": "CCC(CO)(CO)CO", "LD50": 14100},
      {"smiles": "Clc1ccc(CSC(Cn2cncn2)=Nc2ccc(Cl)cc2Cl)cc1", "LD50": 2800},
      {"smiles": "O=C1OCCN1/N=C/c1ccc([N+](=O)[O-])o1", "LD50": 2340},
      {"smiles": "CC(C)[C@@]1(O)[C@@H](OC(=O)c2ccc[nH]2)[C@@]2(O)[C@@]3(C)C[C@]4(O)O[C@@]5([C@H](O)[C@@H](C)CC[C@]35O)[C@@]2(O)[C@@]14C", "LD50": 750},
      {"smiles": "OCCNCCOc1ccc(C(=C(c2ccccc2)C(F)(F)F)c2ccccc2)cc1", "LD50": 1400},
      {"smiles": "CC(=O)N(CCN(C)C)n1cc(-c2ccccc2)c2ccccc21", "LD50": 1100},
      {"smiles": "C=CC(=O)OCC(=O)OCC", "LD50": 215},
      {"smiles": "CCCCCC[C@H]1C(=O)O[C@H](C)[C@H](NC(=O)c2cccc(NC=O)c2O)C(=O)O[C@@H](C)[C@@H]1OC(=O)CC(C)C", "LD50": 1470},
      {"smiles": "Cc1cc(O)ccc1S(C)=O", "note": "(stereo unspecified)", "LD50": 3500},
      {"smiles": "Nc1ncnc2[nH]cnc12", "LD50": 227},
      {"smiles": "Oc1c(Cl)cnc(Cl)c1Cl", "LD50": 80},
      {"smiles": "C=CC(=O)OC(C)(C)C", "LD50": 1050},
      {"smiles": "CCN(CC)C(=O)CCC(C)=O", "LD50": 4760},
      {"smiles": "CNC(=O)N1C(=O)CN=C(c2ccccc2)c2cc([N+](=O)[O-])ccc21", "LD50": 2280},
      {"smiles": "C[C@H](CCc1ccccc1)NC[C@H](O)c1ccc(O)c(C(N)=O)c1", "LD50": 1030},
      {"smiles": "O=S(=O)(CCCl)COCS(=O)(=O)CCCl", "LD50": 168},
      {"smiles": "COc1cc2[nH]c(C)c(CCN3CCN(c4ccccc4)CC3)c2cc1OC", "LD50": 1000},
      {"smiles": "CN1CCC(C=C2c3ccccc3CCc3ccccc32)C1", "note": "(stereo unspecified)", "LD50": 303},
      {"smiles": "OCCS", "LD50": 244},
      {"smiles": "CCOC(=O)Nc1cccc2c1CN(C)CC2c1ccc(Cl)cc1", "note": "(stereo unspecified)", "LD50": 665},
      {"smiles": "Nc1cc(-c2cccs2)no1", "LD50": 1850},
      {"smiles": "CC(=O)OC(C)C[N+](C)(C)C", "note": "(stereo unspecified)", "LD50": 750},
      {"smiles": "Nc1nc2cc(F)ccc2o1", "LD50": 1000},
      {"smiles": "CN(Sc1ccc(F)cc1)C(=O)Oc1cccc2c1OC(C)(C)C2", "LD50": 25},
      {"smiles": "C=CCOC(=O)CCC", "LD50": 250},
      {"smiles": "Cc1ccc(C(C)(C)C)cc1", "LD50": 1560}
    ]}
  ]
}
